From patent US20240360151A1 (SANOFI, priority 2023, published 2024)

Assays:
NLRP3 inflammasome = molecular target: T1, NLRP3 inflammasome (Homo sapiens, UniProt Q96P20); assay: IL-1β secretion assay (NLRP3 IC50) in LPS-primed, nigericin-activated THP-1 cells, HTRF; format: cell-based; details: monocytic THP-1 cells; LPS 10 ng/mL 3 h priming, then compound + nigericin 10 μM 2 h; relative IC50, 10 concentrations, geometric mean
T1 construct: endogenous in cells; host or cells: THP-1 monocytic cells
T1 sequence (Q96P20 whole entry): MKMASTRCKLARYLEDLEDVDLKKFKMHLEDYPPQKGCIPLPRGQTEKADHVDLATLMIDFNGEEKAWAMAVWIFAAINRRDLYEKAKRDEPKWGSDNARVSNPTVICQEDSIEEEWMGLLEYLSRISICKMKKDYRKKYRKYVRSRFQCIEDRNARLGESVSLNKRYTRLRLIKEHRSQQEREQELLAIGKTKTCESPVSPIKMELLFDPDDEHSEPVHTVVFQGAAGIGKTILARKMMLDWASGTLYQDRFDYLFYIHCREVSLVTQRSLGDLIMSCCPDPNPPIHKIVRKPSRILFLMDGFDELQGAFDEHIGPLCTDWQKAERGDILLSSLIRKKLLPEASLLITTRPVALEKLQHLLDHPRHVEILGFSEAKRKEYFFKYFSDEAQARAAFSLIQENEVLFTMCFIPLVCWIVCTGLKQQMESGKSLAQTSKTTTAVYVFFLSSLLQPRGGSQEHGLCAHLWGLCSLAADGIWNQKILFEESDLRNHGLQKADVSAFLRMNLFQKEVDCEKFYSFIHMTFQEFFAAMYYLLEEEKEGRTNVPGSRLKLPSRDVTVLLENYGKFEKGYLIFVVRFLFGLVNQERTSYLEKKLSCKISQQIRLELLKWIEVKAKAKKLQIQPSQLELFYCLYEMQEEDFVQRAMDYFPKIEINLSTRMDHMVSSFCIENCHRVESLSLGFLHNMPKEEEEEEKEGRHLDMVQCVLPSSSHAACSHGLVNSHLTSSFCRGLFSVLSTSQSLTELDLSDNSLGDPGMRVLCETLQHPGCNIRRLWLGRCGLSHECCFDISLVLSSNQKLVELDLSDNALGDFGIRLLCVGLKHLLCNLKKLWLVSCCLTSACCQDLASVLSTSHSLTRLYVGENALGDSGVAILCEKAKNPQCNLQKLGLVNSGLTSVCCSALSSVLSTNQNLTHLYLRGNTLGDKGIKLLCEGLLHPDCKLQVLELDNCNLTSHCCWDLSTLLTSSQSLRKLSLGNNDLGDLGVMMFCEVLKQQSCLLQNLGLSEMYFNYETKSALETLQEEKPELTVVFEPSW
Outline: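 IL-1β in supernatant read by HTRF after 2 h co-incubation of compound (0.1% DMSO, 10 concentrations, 1:3 series) with nigericin at 10 μM final, following 3 h LPS (10 ng/mL) priming of THP-1 monocytes at 37° C. Inhibition normalised to unactivated and no-compound controls; geometric-mean relative IC50 from 4-parameter logistic model.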

[1] = test system: NF-kB pathway (TNF-α secretion by THP-1 cells); assay: TNF-α secretion assay in LPS-stimulated THP-1 cells, Lumit immunoassay; format: cell-based, human; details: Homo sapiens, THP-1, 3 h, monocytic THP-1 cells, LPS 10 ng/mL, relative IC50, 10 concentrations, geometric mean
Outline: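 TNF-α release was quantified directly in the cell plate by Lumit immunoassay after a 3-h, 10 ng/mL LPS trigger of compound-treated THP-1 cells (RPMI, 5% FBS). Percent inhibition versus no-compound and unstimulated controls fed a 4-parameter logistic fit over 10 concentrations, giving geometric-mean relative IC50.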

Row | SMILES | IC50 (NLRP3 inflammasome) | IC50 [1]
1 | Cc1cc(N2CCO[C@H](CO)C2)nnc1-c1ccc(Cl)cc1O [Example 85, 5-chloro-2-[6-[(2S)-2-(hydroxymethyl)morpholin-4-yl]-4-methyl-pyridazin-3-yl]phenol] | 33 nM | > 10000 nM
2 | Cc1cc(C)c(-c2ccc(N3CCO[C@@H](CN)C3)nn2)c(O)c1 [Example 87, 2-[6-[(2S)-2-(aminomethyl)morpholin-4-yl]pyridazin-3-yl]-3,5-dimethyl-phenol; 2,2,2-trifluoroacetic acid] | 311 nM | > 10000 nM
3 | COc1cc(C)c(-c2nnc(N3CCO[C@H](CO)C3)cc2C)c(O)c1 [Example 119, 2-[6-[(2S)-2-(hydroxymethyl)morpholin-4-yl]-4-methyl-pyridazin-3-yl]-5-methoxy-3-methyl-phenol] | 561 nM | > 10000 nM
4 | Cc1cc(OC(F)(F)F)cc(O)c1-c1ccc(N2CCO[C@H](CO)C2)nn1 [Example 121, 2-[6-[(2S)-2-(hydroxymethyl)morpholin-4-yl]pyridazin-3-yl]-3-methyl-5-(trifluoromethoxy)phenol] | 92 nM | > 10000 nM
5 | Cc1cc(C)c(-c2ccc(N3CCC(CO)C3=O)nn2)c(O)c1 (centres unmarked) [Example 122, 1-[6-(2-hydroxy-4,6-dimethyl-phenyl)pyridazin-3-yl]-3-(hydroxymethyl) pyrrolidin-2-one] | 149 nM | > 10000 nM
6 | Cc1cc(Cl)cc(O)c1-c1ccc(N2CC[C@H](CO)C2)nn1 [Example 127, 5-chloro-2-[6-[(3S)-3-(hydroxymethyl)pyrrolidin-1-yl]pyridazin-3-yl]-3-methyl-phenol] | 125 nM | > 10000 nM
7 | CC(=O)NC[C@@H]1COCCN1c1ccc(-c2c(C)cc(C)cc2O)nn1 [Example 129, N-[[(3R)-4-[6-(2-hydroxy-4,6-dimethyl-phenyl)pyridazin-3-yl]morpholin-3-yl]methyl]acetamide] | 665 nM | > 10000 nM
8 | Cc1cc(Cl)cc(O)c1-c1ccc(N2C[C@@H](O)CC2=O)nn1 [Example 130, (4S)-1-[6-(4-chloro-2-hydroxy-6-methyl-phenyl)pyridazin-3-yl]-4-hydroxy-pyrrolidin-2-one] | 99 nM | > 10000 nM
9 | Cc1cc(C)c(-c2ccc(N3C[C@@H](N)CC3=O)nn2)c(O)c1 [Example 131, (4S)-4-amino-1-[6-(2-hydroxy-4,6-dimethyl-phenyl)pyridazin-3-yl]pyrrolidin-2-one] | 387 nM | > 10000 nM
10 | Cc1cc(C(F)(F)F)cc(O)c1-c1ccc(N2C[C@H](O)CC2=O)nn1 [Example 132, (4R)-4-hydroxy-1-[6-[2-hydroxy-6-methyl-4-(trifluoromethyl)phenyl]pyridazin-3-yl]pyrrolidin-2-one] | 362 nM | > 10000 nM
11 | Cc1cc(-c2c(C)cc(Cl)cc2O)nnc1N1CCO[C@H](CO)C1 [Example 133, 5-chloro-2-[6-[(2S)-2-(hydroxymethyl)morpholin-4-yl]-5-methyl-pyridazin-3-yl]-3-methyl-phenol] | 68 nM | > 10000 nM
12 | Cc1cc(C(F)F)cc(O)c1-c1ccc(N2CCO[C@H](CO)C2)nn1 [Example 134, 5-(difluoromethyl)-2-[6-[(2S)-2-(hydroxymethyl)morpholin-4-yl]pyridazin-3-yl]-3-methyl-phenol] | 71 nM | > 10000 nM
13 | Cc1ccc(-c2nnc(N3CCO[C@H](CO)C3)cc2C(F)F)c(O)c1 [Example 144, 2-[4-(difluoromethyl)-6-[(2S)-2-(hydroxymethyl)morpholin-4-yl]pyridazin-3-yl]-5-methyl-phenol] | 151 nM | > 10000 nM
14 | OC[C@@H]1CN(c2cc(C(F)F)c(-c3ccc(Cl)cc3O)nn2)CCO1 [Example 145, 5-chloro-2-[4-(difluoromethyl)-6-[(2S)-2-(hydroxymethyl)morpholin-4-yl]pyridazin-3-yl]phenol] | 34 nM | > 10000 nM
15 | Cc1cc(N2CCO[C@H](CO)C2)nnc1-c1c(C)cc(Cl)cc1O [Example 149, 5-chloro-2-[6-[(2S)-2-(hydroxymethyl)morpholin-4-yl]-4-methyl-pyridazin-3-yl]-3-methyl-phenol] | 52 nM | > 10000 nM
16 | Cc1cc(O)c(-c2ccc(N3CCO[C@H](CO)C3)nn2)c(C(F)F)c1 [Example 153, 3-(difluoromethyl)-2-[6-[(2S)-2-(hydroxymethyl)morpholin-4-yl]pyridazin-3-yl]-5-methyl-phenol] | 47 nM | > 10000 nM
17 | Cc1cc(C)c(-c2cc(C#N)c(N3CCO[C@H](CO)C3)nn2)c(O)c1 [Example 158, 6-(2-hydroxy-4,6-dimethyl-phenyl)-3-[(2S)-2-(hydroxymethyl)morpholin-4-yl]pyridazine-4-carbonitrile] | 85 nM | > 10000 nM
18 | Cc1cc(C(F)(F)F)cc(O)c1-c1cc(C#N)c(N2CCO[C@H](CO)C2)nn1 [Example 159, 3-[(2S)-2-(hydroxymethyl)morpholin-4-yl]-6-[2-hydroxy-6-methyl-4-(trifluoromethyl)phenyl]pyridazine-4-carbonitrile] | 43 nM | > 10000 nM
19 | OC[C@@H]1CN(c2cc(C(F)(F)F)c(-c3ccc(Cl)cc3O)nn2)CCO1 [Example 160, 5-chloro-2-[6-[(2S)-2-(hydroxymethyl)morpholin-4-yl]-4-(trifluoromethyl)pyridazin-3-yl]phenol] | 171 nM | > 10000 nM
20 | Cc1cc(Cl)cc(O)c1-c1cc(C#N)c(N2CCO[C@H](CO)C2)nn1 [Example 163, 6-(4-chloro-2-hydroxy-6-methyl-phenyl)-3-[(2S)-2-(hydroxymethyl)morpholin-4-yl]pyridazine-4-carbonitrile] | 7 nM | > 10000 nM
21 | [2H]C([2H])(O)[C@@H]1CN(c2ccc(-c3c(C)cc(Cl)cc3O)nn2)CCO1 [Example 169, 5-chloro-2-[6-[(2S)-2-[dideuterio(hydroxy)methyl]morpholin-4-yl]pyridazin-3-yl]-3-methylphenol] | 8 nM | > 10000 nM
22 | Cc1cc(C)c(-c2cc(C(F)F)c(N3CCO[C@H](CO)C3)nn2)c(O)c1 [Example 170, 2-[5-(difluoromethyl)-6-[(2S)-2-(hydroxymethyl)morpholin-4-yl]pyridazin-3-yl]-3,5-dimethyl-phenol] | 12 nM | > 10000 nM

The remaining lines, values ahead:

Row | IC50 (NLRP3 inflammasome) | IC50 [1] | SMILES
23 | 208 nM | > 10000 nM | Cc1ccc(-c2nnc(N3CCO[C@H](CO)C3)c(C)c2C)c(O)c1 [Example 80, 2-[6-[(2S)-2-(hydroxymethyl)morpholin-4-yl]-4,5-dimethyl-pyridazin-3-yl]-5-methyl-phenol]
24 | 164 nM | 9800 nM | Cc1c(-c2ccc(Cl)cc2O)nnc(N2CCO[C@H](CO)C2)c1C [Example 81, 5-chloro-2-[6-[(2S)-2-(hydroxymethyl)morpholin-4-yl]-4,5-dimethyl-pyridazin-3-yl]phenol]
25 | 506 nM | > 10000 nM | Cc1cc(C)c(-c2ccc(N3C[C@@H](O)CC3=O)nn2)c(O)c1 [Example 86, (4S)-4-hydroxy-1-[6-(2-hydroxy-4,6-dimethyl-phenyl)pyridazin-3-yl]pyrrolidin-2-one]
26 | 454 nM | > 10000 nM | COc1ccc(-c2nnc(N3CCO[C@H](CO)C3)cc2C)c(O)c1 [Example 116, 2-[6-[(2S)-2-(hydroxymethyl)morpholin-4-yl]-4-methyl-pyridazin-3-yl]-5-methoxy-phenol]
27 | 484 nM | > 10000 nM | CCC(=O)C1CN(c2ccc(-c3c(C)cc(C)cc3O)nn2)CCO1 (centres unmarked) [Example 126, 1-[4-[6-(2-hydroxy-4,6-dimethylphenyl)pyridazin-3-yl]morpholin-2-yl]propan-1-one]
28 | 131 nM | > 10000 nM | Cc1ccc(C)c(-c2ccc(N3CCO[C@H](CO)C3)nn2)c1O [Example 141, 2-[6-[(2S)-2-(hydroxymethyl)morpholin-4-yl]pyridazin-3-yl]-3,6-dimethylphenol]
29 | 461 nM | > 10000 nM | Cc1ccc(-c2nnc(N3CCO[C@H](CO)C3)cc2C(F)(F)F)c(O)c1 [Example 155, 2-[6-[(2S)-2-(hydroxymethyl)morpholin-4-yl]-4-(trifluoromethyl)pyridazin-3-yl]-5-methyl-phenol]
30 | 28 nM | > 10000 nM | Oc1cc(Cl)cc(Cl)c1-c1ccc(N2CCOC(CF)C2)nn1 (centres unmarked) [Example 161, 3,5-dichloro-2-[6-[2-(fluoromethyl)morpholin-4-yl]pyridazin-3-yl]phenol]
31 | 10 nM | > 10000 nM | Cc1cc(C)c(-c2ccc(N3CCOc4ccc(O)cc43)nn2)c(O)c1 [Example 162, 4-[6-(2-hydroxy-4,6-dimethyl-phenyl)pyridazin-3-yl]-2,3-dihydro-1,4-benzoxazin-6-ol]
32 | 81 nM | > 10000 nM | CC(=O)NC[C@@H]1CCCN(c2ccc(-c3c(C)cc(C(F)(F)F)cc3O)nn2)C1 [Example 164, N-[[(3S)-1-[6-[2-hydroxy-6-methyl-4-(trifluoromethyl)phenyl]pyridazin-3-yl]-3-piperidyl]methyl]acetamide]
33 | 42 nM | 5620 nM | [2H]C([2H])(O)[C@@H]1CN(c2ccc(-c3c(C)cc(C)cc3O)nn2)CCO1 [Example 165, 2-[6-[(2S)-2-[dideuterio(hydroxy)methyl]morpholin-4-yl]pyridazin-3-yl]-3,5-dimethylphenol]
34 | 309 nM | > 10000 nM | CC(=O)NC[C@H]1CCCN(c2ccc(-c3c(C)cc(C(F)(F)F)cc3O)nn2)C1 [Example 167, N-[[(3R)-1-[6-[2-hydroxy-6-methyl-4-(trifluoromethyl)phenyl]pyridazin-3-yl]-3-piperidyl]methyl]acetamide]
